# Laboratory results published in ChEMBL document CHEMBL1201862, “PubChem BioAssay data set” (2004).
#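 Tested at 5 concentrations; 48 h exposure; 96-well plates; endpoints linearly interpolated, else capped at highest concentration. GI50 = concentration required for 50% inhibition of growth.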 Activity calls are given as the source filed them. No stated cut-off is given here; in the data, active = GI50 up to about 1.1 µM and inactive = higher.
# Key:
# Assay in all cases: NCI tumour cell line growth inhibition, 48 h
# KM-20L2 = system: KM-20L2
# EKVX = system: EKVX
# TK-10 = system: TK-10
# NCI-H23 = system: NCI-H23
# CCRF-CEM = system: CCRF-CEM
# LOX IMVI = system: LOX IMVI
# HCT-15 = system: HCT-15
# UO-31 = system: UO-31
# SNB-75 = system: SNB-75
# A498 = system: A498
# HOP-92 = system: HOP-92
# Malme-3M = system: Malme-3M
# M14 = system: M14
# M19-MEL = system: M19-MEL
# SNB-78 = system: SNB-78
# SNB-19 = system: SNB-19
# NCI-H522 = system: NCI-H522
# HOP-62 = system: HOP-62
# RPMI-8226 = system: RPMI-8226
# HCT-116 = system: HCT-116
# SN12C = system: SN12C
# K562 = system: K562
# HL-60 = system: HL-60
# A549 = system: A549
# 786-0 = system: 786-0
# SF-268 = system: SF-268
# OVCAR-3 = system: OVCAR-3
# SF-539 = system: SF-539
# SF-295 = system: SF-295
# SK-OV-3 = system: SK-OV-3
# SW-620 = system: SW-620
# NCI-H226 = system: NCI-H226
# SK-MEL-28 = system: SK-MEL-28
# SK-MEL-5 = system: SK-MEL-5
# COLO 205 = system: COLO 205
# KM12 = system: KM12
# HCC 2998 = system: HCC 2998
# DLD-1 = system: DLD-1
# OVCAR-5 = system: OVCAR-5
# IGROV-1 = system: IGROV-1
# CAKI-1 = system: CAKI-1
# DMS-273 = system: DMS-273
# LXFL 529 = system: LXFL 529
# RXF 393 = system: RXF 393
# NCI-H460 = system: NCI-H460
# SR = system: SR
# XF498 = system: XF498
# OVCAR-4 = system: OVCAR-4
# SK-MEL-2 = system: SK-MEL-2
# DMS-114 = system: DMS-114
# MOLT-4 = system: MOLT-4
# U-251 = system: U-251
# ACHN = system: ACHN
# HT-29 = system: HT-29
# UACC-62 = system: UACC-62
# OVCAR-8 = system: OVCAR-8
# UACC-257 = system: UACC-257
# HOP-18 = system: HOP-18
compound,measurement,setting,value
Fc1nc(F)nc(-c2c3ccccc3c3n2CCS3)n1,GI50,KM-20L2,> 100 µM (inactive)
same,GI50,EKVX,> 100 µM (inactive)
same,GI50,TK-10,> 10 µM (inactive)
same,GI50,NCI-H23,> 100 µM (inactive)
same,GI50,CCRF-CEM,33.1 µM (inactive)
same,GI50,LOX IMVI,61.4 µM (inactive)
same,GI50,HCT-15,54.8 µM
same,GI50,UO-31,84.5 µM (inactive)
same,GI50,SNB-75,22.8 µM (inactive)
same,GI50,A498,30.8 µM (inactive)
same,GI50,HOP-92,39.4 µM (inactive)
same,GI50,Malme-3M,> 100 µM (inactive)
same,GI50,M14,71.1 µM (inactive)
same,GI50,M19-MEL,> 100 µM (inactive)
same,GI50,SNB-78,23 µM (inactive)
same,GI50,SNB-19,> 100 µM (inactive)
same,GI50,NCI-H522,47.2 µM (inactive)
same,GI50,HOP-62,39.7 µM (inactive)
same,GI50,RPMI-8226,33 µM (inactive)
same,GI50,HCT-116,65.5 µM (inactive)
same,GI50,SN12C,> 100 µM (inactive)
same,GI50,K562,47.5 µM (inactive)
same,GI50,HL-60,46.8 µM (inactive)
same,GI50,A549,> 100 µM (inactive)
same,GI50,786-0,78.5 µM (inactive)
same,GI50,SF-268,70.5 µM (inactive)
same,GI50,OVCAR-3,> 100 µM (inactive)
same,GI50,SF-539,> 100 µM (inactive)
same,GI50,SF-295,53.3 µM (inactive)
same,GI50,SK-OV-3,> 100 µM (inactive)
same,GI50,SW-620,> 100 µM (inactive)
same,GI50,NCI-H226,> 100 µM (inactive)
same,GI50,SK-MEL-28,> 100 µM (inactive)
same,GI50,SK-MEL-5,50.1 µM (inactive)
same,GI50,COLO 205,> 100 µM (inactive)
same,GI50,KM12,47 µM (inactive)
same,GI50,HCC 2998,> 100 µM (inactive)
same,GI50,DLD-1,57.8 µM (inactive)
same,GI50,OVCAR-5,> 100 µM (inactive)
same,GI50,IGROV-1,> 100 µM (inactive)
same,GI50,CAKI-1,> 100 µM (inactive)
same,GI50,DMS-273,76.2 µM (inactive)
same,GI50,LXFL 529,58.1 µM (inactive)
same,GI50,RXF 393,91.2 µM (inactive)
same,GI50,NCI-H460,61.4 µM (inactive)
same,GI50,SR,37 µM (inactive)
same,GI50,XF498,23.4 µM (inactive)
same,GI50,OVCAR-4,98.9 µM (inactive)
same,GI50,SK-MEL-2,44.5 µM (inactive)
same,GI50,DMS-114,> 100 µM (inactive)
same,GI50,MOLT-4,> 10 µM (inactive)
same,GI50,U-251,29 µM (inactive)
same,GI50,ACHN,> 100 µM (inactive)
same,GI50,HT-29,> 100 µM (inactive)
O=C(Nc1ccc(F)cc1)C(=O)C(C1OC(=O)c2ccccc21)[N+](=O)[O-] (stereo unspecified),GI50,KM-20L2,> 100 µM (inactive)
same,GI50,EKVX,> 100 µM (inactive)
same,GI50,TK-10,> 100 µM (inactive)
same,GI50,NCI-H23,> 100 µM (inactive)
same,GI50,CCRF-CEM,> 100 µM (inactive)
same,GI50,LOX IMVI,> 100 µM (inactive)
same,GI50,HCT-15,> 100 µM
same,GI50,UO-31,> 100 µM (inactive)
same,GI50,SNB-75,> 100 µM (inactive)
same,GI50,A498,> 100 µM (inactive)
same,GI50,HOP-92,> 100 µM (inactive)
same,GI50,Malme-3M,> 100 µM (inactive)
same,GI50,M14,> 100 µM (inactive)
same,GI50,UACC-62,> 100 µM (inactive)
same,GI50,M19-MEL,> 100 µM (inactive)
same,GI50,OVCAR-8,> 100 µM (inactive)
same,GI50,SNB-78,> 100 µM (inactive)
same,GI50,SNB-19,> 100 µM (inactive)
same,GI50,HOP-62,> 100 µM (inactive)
same,GI50,RPMI-8226,> 100 µM (inactive)
same,GI50,HCT-116,> 100 µM (inactive)
same,GI50,K562,> 100 µM (inactive)
same,GI50,HL-60,> 100 µM (inactive)
same,GI50,A549,> 100 µM (inactive)
same,GI50,786-0,> 100 µM (inactive)
same,GI50,SF-268,> 100 µM (inactive)
same,GI50,OVCAR-3,> 100 µM (inactive)
same,GI50,SF-539,> 100 µM (inactive)
same,GI50,SF-295,> 100 µM (inactive)
same,GI50,SK-OV-3,> 100 µM (inactive)
same,GI50,SW-620,> 100 µM (inactive)
same,GI50,NCI-H226,> 100 µM (inactive)
same,GI50,SK-MEL-28,> 100 µM (inactive)
same,GI50,SK-MEL-5,> 100 µM (inactive)
same,GI50,COLO 205,> 100 µM (inactive)
same,GI50,UACC-257,> 100 µM (inactive)
same,GI50,KM12,> 100 µM (inactive)
same,GI50,HCC 2998,> 100 µM (inactive)
same,GI50,DLD-1,> 100 µM (inactive)
same,GI50,OVCAR-5,> 100 µM (inactive)
same,GI50,IGROV-1,> 100 µM (inactive)
same,GI50,CAKI-1,> 100 µM (inactive)
same,GI50,LXFL 529,> 100 µM (inactive)
same,GI50,RXF 393,> 100 µM (inactive)
same,GI50,NCI-H460,> 100 µM (inactive)
same,GI50,SR,> 100 µM (inactive)
same,GI50,XF498,> 100 µM (inactive)
same,GI50,OVCAR-4,> 100 µM (inactive)
same,GI50,SK-MEL-2,> 100 µM (inactive)
same,GI50,DMS-114,> 100 µM (inactive)
same,GI50,MOLT-4,> 100 µM (inactive)
same,GI50,U-251,> 100 µM (inactive)
same,GI50,ACHN,> 100 µM (inactive)
same,GI50,HT-29,> 100 µM (inactive)
COc1cc(C2C(Cl)C(=O)N2NC(=O)c2ccc(NC(C)=O)cc2)cc(OC)c1OC (stereo unspecified),GI50,TK-10,> 100 µM (inactive)
same,GI50,NCI-H23,> 100 µM (inactive)
same,GI50,CCRF-CEM,> 100 µM (inactive)
same,GI50,UO-31,> 100 µM (inactive)
same,GI50,SNB-75,> 100 µM (inactive)
same,GI50,HOP-92,> 100 µM (inactive)
same,GI50,Malme-3M,> 100 µM (inactive)
same,GI50,UACC-62,> 100 µM (inactive)
same,GI50,M19-MEL,> 100 µM (inactive)
same,GI50,SNB-19,> 100 µM (inactive)
same,GI50,NCI-H522,> 100 µM (inactive)
same,GI50,HOP-62,> 100 µM (inactive)
same,GI50,RPMI-8226,> 100 µM (inactive)
same,GI50,HCT-116,> 100 µM (inactive)
same,GI50,K562,> 100 µM (inactive)
same,GI50,HL-60,> 100 µM (inactive)
same,GI50,A549,> 100 µM (inactive)
same,GI50,SF-268,> 100 µM (inactive)
same,GI50,OVCAR-3,> 100 µM (inactive)
same,GI50,SF-539,> 100 µM (inactive)
same,GI50,SF-295,> 100 µM (inactive)
same,GI50,SK-OV-3,> 100 µM (inactive)
same,GI50,SW-620,> 100 µM (inactive)
same,GI50,HOP-18,> 100 µM (inactive)
same,GI50,NCI-H226,> 100 µM (inactive)
same,GI50,SK-MEL-28,> 100 µM (inactive)
same,GI50,SK-MEL-5,> 100 µM (inactive)
same,GI50,COLO 205,> 100 µM (inactive)
same,GI50,UACC-257,> 100 µM (inactive)
same,GI50,KM12,> 100 µM (inactive)
same,GI50,DLD-1,> 100 µM (inactive)
same,GI50,OVCAR-5,> 100 µM (inactive)
same,GI50,IGROV-1,> 100 µM (inactive)
same,GI50,LXFL 529,> 100 µM (inactive)
same,GI50,NCI-H460,> 100 µM (inactive)
same,GI50,SK-MEL-2,> 100 µM (inactive)
same,GI50,MOLT-4,> 100 µM (inactive)
same,GI50,U-251,> 100 µM (inactive)
same,GI50,ACHN,> 10 µM (inactive)
same,GI50,HT-29,> 100 µM (inactive)
CCOC(=O)C1CC/C(=C(/C#N)C(=O)OC)N1 (stereo unspecified),GI50,KM-20L2,> 100 µM (inactive)
same,GI50,EKVX,> 100 µM (inactive)
same,GI50,TK-10,> 100 µM (inactive)
same,GI50,NCI-H23,> 100 µM (inactive)
same,GI50,CCRF-CEM,> 100 µM (inactive)
same,GI50,LOX IMVI,> 100 µM (inactive)
same,GI50,HCT-15,> 100 µM
same,GI50,UO-31,> 100 µM (inactive)
same,GI50,SNB-75,> 100 µM (inactive)
same,GI50,A498,> 100 µM (inactive)
same,GI50,HOP-92,> 100 µM (inactive)
same,GI50,M14,> 100 µM (inactive)
same,GI50,UACC-62,31.8 µM (inactive)
same,GI50,M19-MEL,> 100 µM (inactive)
same,GI50,OVCAR-8,> 100 µM (inactive)
same,GI50,SNB-78,> 100 µM (inactive)
same,GI50,SNB-19,> 100 µM (inactive)
same,GI50,NCI-H522,> 100 µM (inactive)
same,GI50,HOP-62,> 100 µM (inactive)
same,GI50,RPMI-8226,> 100 µM (inactive)
same,GI50,HCT-116,> 100 µM (inactive)
same,GI50,SN12C,> 100 µM (inactive)
same,GI50,K562,> 100 µM (inactive)
same,GI50,HL-60,> 100 µM (inactive)
same,GI50,A549,> 100 µM (inactive)
same,GI50,786-0,> 100 µM (inactive)
same,GI50,SF-268,> 100 µM (inactive)
same,GI50,OVCAR-3,> 100 µM (inactive)
same,GI50,SF-539,> 100 µM (inactive)
same,GI50,SF-295,> 100 µM (inactive)
same,GI50,SK-OV-3,57.7 µM (inactive)
same,GI50,SW-620,> 100 µM (inactive)
same,GI50,SK-MEL-28,> 100 µM (inactive)
same,GI50,SK-MEL-5,> 100 µM (inactive)
same,GI50,COLO 205,> 100 µM (inactive)
same,GI50,UACC-257,> 100 µM (inactive)
same,GI50,KM12,> 100 µM (inactive)
same,GI50,HCC 2998,> 100 µM (inactive)
same,GI50,DLD-1,> 100 µM (inactive)
same,GI50,IGROV-1,> 100 µM (inactive)
same,GI50,CAKI-1,> 100 µM (inactive)
same,GI50,DMS-273,> 100 µM (inactive)
same,GI50,LXFL 529,> 100 µM (inactive)
same,GI50,RXF 393,> 100 µM (inactive)
same,GI50,NCI-H460,> 100 µM (inactive)
same,GI50,SR,> 100 µM (inactive)
same,GI50,XF498,> 100 µM (inactive)
same,GI50,OVCAR-4,> 100 µM (inactive)
same,GI50,SK-MEL-2,> 100 µM (inactive)
same,GI50,DMS-114,> 100 µM (inactive)
same,GI50,MOLT-4,> 100 µM (inactive)
same,GI50,U-251,> 100 µM (inactive)
same,GI50,ACHN,> 100 µM (inactive)
